Patent US12543736B2, “Herbicidal compositions comprising mesotrione” (BASF SE, priority 2024, dated 2026)

Assays:
Type in all cases: in vivo
Echinochloa crus-galli = test: Example 1 post-emergence greenhouse trial, ECHCG; conditions: growth stage 14, 21 DAT
Procedure: In the examples below, using the method of S. R. Colby (1967) “Calculating synergistic and antagonistic responses of herbicide combinations”, Weeds 15, p. 22ff., the value E, which is expected if the activity of the individual active compounds is only additive, was calculated: [formula] • where • X=percent activity using active herbicide A at an application rate a; • Y=percent activity using active herbicide B (e.g. mesotrione) at an application rate b; • E=expected activity (in %) by A+B at application rates a+b. If the value found experimentally is higher than the value E calculated according to Colby, a synergistic effect is present. The culture containers used were plastic pots containing loamy sand with approximately 3.0% of humus as substrate. The seeds of the test plants were sown separately for each species. For the post-emergence treatment, the test plants were grown to a plant height of from 3 to 15 cm, depending on the plant habit, and only then treated with the active compounds which had been suspended or emulsified in water. To this end, the test plants were either sown directly, and grown in the same containers, or they were first grown separately as seedlings and transplanted into the test containers a few days prior to treatment. Depending on the species, the plants were kept at 10-25° C. and 20-35° C., respectively. The test period extended over 2 to 4 weeks. During this time, the plants were tended and their response to the individual treatments was evaluated. Evaluation was carried out using a scale from 0 to 100. 100 means no emergence of the plants, or complete destruction of at least the above-ground parts, and 0 means no damage or normal course of growth. A good herbicidal activity is given at values of at least 70, and very good herbicidal activity is given at values of at least 85. Post-Emergence Application of Herbicide A-1 (A-1) and Mesotrione (B) in Greenhouse Trials Herbicide A-1 (50 g/l) and mesotrione (480 g/l) were, together with addition of 1 v/v % MSO (methylated sed oil) as adjuvant, formulated in water as distribution medium (water volume 200 l/ha) and sprayed with commercial flat fan nozzles.

Amaranthus retroflexus = test: Example 3 post-emergence field trial, AMARE; conditions: height 10-12 cm; for % herbicidal activity B / % herbicidal activity A-1: 42 DAT
Procedure: In the examples below, using the method of S. R. Colby (1967) “Calculating synergistic and antagonistic responses of herbicide combinations”, Weeds 15, p. 22ff., the value E, which is expected if the activity of the individual active compounds is only additive, was calculated: [formula] • where • X=percent activity using active herbicide A at an application rate a; • Y=percent activity using active herbicide B (e.g. mesotrione) at an application rate b; • E=expected activity (in %) by A+B at application rates a+b. If the value found experimentally is higher than the value E calculated according to Colby, a synergistic effect is present. Evaluation was carried out using a scale from 0 to 100. 100 means no emergence of the plants, or complete destruction of at least the above-ground parts, and 0 means no damage or normal course of growth. A good herbicidal activity is given at values of at least 70, and very good herbicidal activity is given at values of at least 85. Post-Emergence Application of Herbicide A-1 (A-1) and Mesotrione (B) in Field Trials Herbicide A-1 (342 g/l) and mesotrione (100 g/l) were, together with addition of 0.5 v/v % MSO (methylated sed oil) as adjuvant, formulated in water as distribution medium (water volume 200 l/ha) and sprayed with commercial flat fan nozzles.

Brachiaria decumbens = test: Example 1 post-emergence greenhouse trial, BRADC; conditions: growth stage 13, 21 DAT, g ai/ha: A-1 4, B 62.5
Procedure: In the examples below, using the method of S. R. Colby (1967) “Calculating synergistic and antagonistic responses of herbicide combinations”, Weeds 15, p. 22ff., the value E, which is expected if the activity of the individual active compounds is only additive, was calculated: [formula] • where • X=percent activity using active herbicide A at an application rate a; • Y=percent activity using active herbicide B (e.g. mesotrione) at an application rate b; • E=expected activity (in %) by A+B at application rates a+b. If the value found experimentally is higher than the value E calculated according to Colby, a synergistic effect is present. The culture containers used were plastic pots containing loamy sand with approximately 3.0% of humus as substrate. The seeds of the test plants were sown separately for each species. For the post-emergence treatment, the test plants were grown to a plant height of from 3 to 15 cm, depending on the plant habit, and only then treated with the active compounds which had been suspended or emulsified in water. To this end, the test plants were either sown directly, and grown in the same containers, or they were first grown separately as seedlings and transplanted into the test containers a few days prior to treatment. […] During this time, the plants were tended and their response to the individual treatments was evaluated. […]

Erigeron canadensis = test: Example 2 post-emergence greenhouse trial, ERICA
Procedure: (§1) In the examples below, using the method of S. R. Colby (1967) “Calculating synergistic and antagonistic responses of herbicide combinations”, Weeds 15, p. 22ff., the value E, which is expected if the activity of the individual active compounds is only additive, was calculated: [formula] • where • X=percent activity using active herbicide A at an application rate a; • Y=percent activity using active herbicide B (e.g. mesotrione) at an application rate b; • E=expected activity (in %) by A+B at application rates a+b. If the value found experimentally is higher than the value E calculated according to Colby, a synergistic effect is present. The culture containers used were plastic pots containing loamy sand with approximately 3.0% of humus as substrate. The seeds of the test plants were sown separately for each species. For the post-emergence treatment, the test plants were grown to a plant height of from 3 to 15 cm, depending on the plant habit, and only then treated with the active compounds which had been suspended or emulsified in water. To this end, the test plants were either sown directly, and grown in the same containers, or they were first grown separately as seedlings and transplanted into the test containers a few days prior to treatment. Depending on the species, the plants were kept at 10-25° C. and 20-35° C., respectively. The test period extended over 2 to 4 weeks. During this time, the plants were tended and their response to the individual treatments was evaluated. Evaluation was carried out using a scale from 0 to 100. 100 means no emergence of the plants, or complete destruction of at least the above-ground parts, and 0 means no damage or normal course of growth. A good herbicidal activity is given at values of at least 70, and very good herbicidal activity is given at values of at least 85. Post-Emergence Application of Herbicide A-1 (A-1) and Mesotrione (B) in Greenhouse Trials Herbicide A-1 (342 g/l) and mesotrione (480 g/l) were, together with addition of 0.5 v/v % MSO (methylated sed oil) as adjuvant, formulated in water as distribution medium (water volume 200 l/ha) and sprayed with commercial flat fan nozzles.

Digitaria sanguinalis = test: Example 2 post-emergence greenhouse trial, DIGSA; conditions: growth stage 12, 7 DAT
Procedure: as §1

[1] = 7 DAT, g ai/ha: A-1 12.5, B 105
[2] = 7 DAT, g ai/ha: A-1 12.5, B 210
[3] = 21 DAT, g ai/ha: A-1 12.5, B 210
[4] = growth stage 19, 7 DAT, g ai/ha: A-1 1, B 50
[5] = growth stage 19, 20 DAT, g ai/ha: A-1 0.5, B 50
[6] = growth stage 19, 20 DAT, g ai/ha: A-1 2, B 50

Structure (SMILES) | % herbicidal activity (Echinochloa crus-galli; g ai/ha: A-1 1, B 62.5) [%] | % herbicidal activity (Echinochloa crus-galli; g ai/ha: A-1 4, B 62.5) [%] | % herbicidal activity B (Amaranthus retroflexus; B 210 g ai/ha (row with A-1 12.5)) [%] | % herbicidal activity B (Amaranthus retroflexus; B 210 g ai/ha (row with A-1 18)) [%] | % herbicidal activity (Amaranthus retroflexus; [1]) [%] | % herbicidal activity (Amaranthus retroflexus; [2]) [%] | % herbicidal activity (Amaranthus retroflexus; 7 DAT, g ai/ha: A-1 18, B 105) [%] | % herbicidal activity (Amaranthus retroflexus; 7 DAT, g ai/ha: A-1 18, B 210) [%] | % herbicidal activity (Amaranthus retroflexus; [3]) [%] | % herbicidal activity (Amaranthus retroflexus; 21 DAT, g ai/ha: A-1 18, B 105) [%] | % herbicidal activity (Amaranthus retroflexus; 21 DAT, g ai/ha: A-1 18, B 210) [%] | % herbicidal activity (Brachiaria decumbens) [%] | % herbicidal activity (Erigeron canadensis; [4]) [%] | % herbicidal activity (Erigeron canadensis; [5]) [%] | % herbicidal activity (Erigeron canadensis; [6]) [%] | % herbicidal activity (Digitaria sanguinalis; g ai/ha: A-1 0.25, B 50) [%] | % herbicidal activity (Digitaria sanguinalis; g ai/ha: A-1 0.25, B 100) [%] | % herbicidal activity (Digitaria sanguinalis; g ai/ha: A-1 0.5, B 50) [%] | % herbicidal activity A-1 (Amaranthus retroflexus; A-1 12.5 g ai/ha) [%] | % herbicidal activity A-1 (Amaranthus retroflexus; A-1 18 g ai/ha) [%]
CS(=O)(=O)c1ccc(C(=O)C2C(=O)CCCC2=O)c([N+](=O)[O-])c1 [B, mesotrione] | 65 | 65 | 65 | 80 | 65 | 65 | 65 | 65 | 65 | 65 | 65 | 20 | 25 | 80 | 80 | 70 | 80 | 70 |  | 
CCOC(=O)COc1ccccc1Oc1nc(-n2c(=O)cc(C(F)(F)F)n(C)c2=O)c(F)cc1Cl [A-1, ethyl 2-[2-[[3-chloro-5-fluoro-6-[3-methyl-2,6-dioxo-4-(trifluoromethyl)pyrimidin-1-yl]-2-pyridyl]oxy]phenoxy]acetate] | 90 | 90 |  |  | 85 | 80 | 93 | 90 | 80 | 80 | 75 | 98 | 80 | 70 | 85 | 30 | 30 | 80 | 80 | 85
